Assay results taken from patent US20230133761A1, “INHIBITION OF FKBP1A FOR THE TREATMENT OF TRIPLE-NEGATIVE MAMMARY CARCINOMA” (Heinrich-Heine-Universität Düsseldorf, priority 2020, published 2023).

Tests used:
[1] = system: triple-negative mammary carcinoma; experiment: Combined inhibition of FKBP1A and PIN1 in triple-negative mammary carcinoma (tumor stem cell character, apoptosis induction); type: cell-based; details: FKBP1A-specific siRNA and co-incubation with ATRA
[2] = system: SFRP2 and VEGF-stimulated in vitro tube formation; details: cited from earlier work
[3] = system: endothelial and breast cancer cells; details: cited from earlier work
breast tumor xenograft = details: in vivo; cited from earlier work
FKBP1A = biological target: T1, FKBP1A (Homo sapiens, UniProt P62942); experiment: Anti-tumor effect on tumor stem cell and EMT markers by PROTAC-mediated FKBP1A expression reduction; type: cell-based
T1 construct: The cells were then washed with PBS, lysed and the expression of FKBP1A was analyzed by western blotting; endogenous in cells; host or cells: MDA-MB-231
T1 sequence (P62942 whole entry): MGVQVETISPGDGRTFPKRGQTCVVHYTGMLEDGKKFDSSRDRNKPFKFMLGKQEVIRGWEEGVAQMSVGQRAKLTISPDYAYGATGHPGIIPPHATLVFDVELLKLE

CC1=C(/C=C/C(C)=C/C=C/C(C)=C/C(=O)O)C(C)(C)CCC1 [ATRA, all-trans retinoic acid]
Effect on reduction of tumor stem cell character and ability to induce apoptosis [1]: strong synergistic effect

C=CC[C@@H]1/C=C(\C)C[C@H](C)C[C@H](OC)[C@H]2O[C@@](O)(C(=O)C(=O)N3CCCC[C@H]3C(=O)O[C@H](/C(C)=C/[C@@H]3CC[C@@H](O)[C@H](OC)C3)[C@H](C)[C@@H](O)CC1=O)[C@H](C)C[C@@H]2OC [tacrolimus]
SFRP2 and VEGF-stimulated in vitro tube formation [2]: inhibit SFRP2 and VEGF-stimulated in vitro tube formation | Migration of endothelial and breast cancer cells [3]: inhibit the migration of endothelial and breast cancer cells | Breast tumor xenograft growth (breast tumor xenograft): attenuates breast tumor xenograft growth in vivo

CO[C@H]1C[C@@H]2CC[C@@H](C)[C@@](O)(O2)C(=O)C(=O)N2CCCC[C@H]2C(=O)O[C@H]([C@H](C)C[C@@H]2CC[C@@H](OCCOCc3cn(CCOCCOCCNc4cccc5c4C(=O)N(C4CCC(=O)NC4=O)C5=O)nn3)[C@H](OC)C2)CC(=O)[C@H](C)/C=C(\C)[C@@H](O)[C@@H](OC)C(=O)[C@H](C)C[C@H](C)/C=C/C=C/C=C/1C (some centres unmarked) [FKBP12 PROTAC RC32]
Anti-tumor effect on tumor stem cell and EMT markers compared to pure inhibition of the enzyme function of FKBP1A (FKBP1A): stronger anti-tumor effect
